The text below walks through data of patent US20110200686A1, “COMPOSITIONS OF MODULATORS OF THE WNT/B-CATENIN PATHWAY AND AN N-CINNAMYL-N'BENZHYDRYL PIPERAZINE AND THEIR USE IN TREATING NEOPLASTIC CONDITIONS INCLUDING MALIGNANT MELANOMA” (UNIVERSITY OG WASHINGTON, priority 2008, published 2011).

One assay deals with GSK-3. The note with it: cited from earlier work; for selectivity for GSK-3: literature values.
For a further assay, the system named is B16 melanoma cells. Nature of the assay: Cell proliferation assay, B16 murine melanoma cells. It is filed as cell-based. The note with it: NaCl 20 mM, negative control, FIG. 3B. The procedure:
For cell counts by hematocytometer, cells were plated at a uniform density (usually between 10,000 to 25,000 cells per well) in a 12 or 24 well tissue culture plate in the appropriate media supplemented with 2% FBS. Cells were then incubated at 37° C. at 5% CO2 for three to seven days based on individual cell doubling time. At the end of the timecourse, cells were trypsinized, resuspended in the appropriate media, and counted using a standard hematocytometer. Dead cells were identified by 0.4% Trypan Blue stain. Cell proliferation experiments were performed with a minimum of six biologic replicates. […] For relative cell proliferation assays of B16:GFP cells incubated with lithium chloride or sodium chloride, cell proliferation was measured by relative firefly luciferase units (Promega; Madison, Wis.).

Assay [1] deals with Wnt/β-catenin pathway. The conditions noted are these: positive control, known from Zhang et al. 2007; cited from earlier work.
In another assay the test system is human melanoma cells. Briefly: Proliferation of human melanoma cells measured by Renilla luciferase activity. The format is cell-based. The note with it: flunarizine 1 μM alone, FIG. 5. On the procedure:
(§1) Wnt3a conditioned media was collected from sub-confluent melanoma cell lines, and this media was tested for its ability to activate Wnt/β-catenin signaling in UACC 1273 melanoma cells that were stably transduced with a Wnt/β-catenin-responsive firefly luciferase reporter and a constitutive Renilla luciferase gene used for normalization (Cignal TCF/LEF transcriptional reporter construct; SABiosciences, Frederick, Md.). Conditioned media was spun down to clear cell debris and then incubated with reporter cells overnight. Activation of the Wnt/β-catenin reporter was measured using a DLR assay kit (Promega; Madison, Wis.).
(§2) Flunarizine and QS11 were solubilized in dimethyl-sulfoxide (DMSO) vehicle, which was used as a control (vol/vol) for the described experiments. Drug incubations were 24-48 hours in duration.

Assay [2] has as its system Wnt/β-catenin pathway. Nature of the assay: Wnt/β-catenin-responsive (TCF/LEF) luciferase reporter assay in melanoma cells. It is filed as cell-based, human. The procedure:
as §1, §2
A TCF/LEF transcriptional reporter gene cell line used to monitor the activation of the Wnt signal transduction pathway was utilized in a high throughput screen of a library of chemical compounds to identify compounds that synergize with lithium in activating the Wnt/β-catenin pathway.
A general note: In a reporter assay the amount or activity of a reporter protein is the signal.

In the case of `O=[N+]([O-])c1ccc(NCCNc2ncc(-c3ncc[nH]3)c(-c3ccc(Cl)cc3Cl)n2)nc1` [CHIR-837], in the assay on GSK-3, the “selectivity for GSK-3” value is recorded as > 5,000 fold.
Take `Cc1c[nH]c(-c2cnc(NCCNc3ccc(C#N)cn3)nc2-c2ccc(Cl)cc2Cl)n1` [CHIR-911]: in the assay with GSK-3 (literature value (Ring et al. 2003), read-out: half-maximal effective concentration [EC50]), the EC50 is […]. Moreover, the “selectivity for GSK-3” value in the assay on GSK-3 is on record as […].
As to `[Cl-].[Na+]` [NaCl, Sodium chloride], the “effect on B16 melanoma cell growth” value in the assay on B16 melanoma cells was “no effect on cell growth”.
As for `OC[C@H](Cc1ccccc1)Nc1nc(Oc2ccc3c(c2)CCC3)nc2c1ncn2Cc1ccc(-c2ccccc2)cc1` [QS11], the “synergy with Wnt-3a in activating the Wnt pathway” value in the assay with Wnt/β-catenin pathway [1] is given as “act synergistically with Wnt-3a to activate the Wnt pathway”.
Regarding `Fc1ccc(C(c2ccc(F)cc2)N2CCN(CC=Cc3ccccc3)CC2)cc1` [flunarizine, 1-[bis(4-fluorophenyl)methyl]-4-cinnamyl-piperazine], the “proliferation of human melanoma cells (Renilla luciferase activity)” value with human melanoma cells was “inhibited”. For the same compound, in the assay with Wnt/β-catenin pathway [2] (flunarizine 1 μM, human melanoma cells, FIG. 6), the “activation of Wnt-responsive reporter together with Wnt-3a conditioned media” value is listed as “synergizes with Wnt-3a conditioned media to activate a Wnt-responsive reporter”. For the same compound, in the assay on Wnt/β-catenin pathway [2] (flunarizine with lithium, FIG. 4), the “enhancement of lithium-induced activation of the TCF/LEF reporter gene” value is approximately 100 fold.
